According to PubChem BioAssay (NCI):
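Each compound was tested at five concentrations against cells in 96-well plates for 48 hours. GI50: concentration for 50% inhibition of growth. TGI is the concentration that stops growth completely.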

Experiments:
Experiment in all cases: NCI-60 cell line screen, 48 h
RXF 393 renal = test system: RXF 393 renal
SF-295 CNS = test system: SF-295 CNS
HCT-15 colon = test system: HCT-15 colon
M14 melanoma = test system: M14 melanoma
HCT-116 colon = test system: HCT-116 colon
SF-539 CNS = test system: SF-539 CNS
OVCAR-5 ovarian = test system: OVCAR-5 ovarian
SK-MEL-28 melanoma = test system: SK-MEL-28 melanoma
LOX IMVI melanoma = test system: LOX IMVI melanoma
RPMI-8226 leukemia = test system: RPMI-8226 leukemia

Compound	GI50 (RXF 393 renal)	TGI (RXF 393 renal)	GI50 (SF-295 CNS)	TGI (SF-295 CNS)	GI50 (HCT-15 colon)	TGI (HCT-15 colon)	GI50 (M14 melanoma)	TGI (M14 melanoma)	GI50 (HCT-116 colon)	TGI (HCT-116 colon)	GI50 (SF-539 CNS)	TGI (SF-539 CNS)	TGI (OVCAR-5 ovarian)	TGI (SK-MEL-28 melanoma)	TGI (LOX IMVI melanoma)	TGI (RPMI-8226 leukemia)	GI50 (OVCAR-5 ovarian)	GI50 (SK-MEL-28 melanoma)	GI50 (LOX IMVI melanoma)	GI50 (RPMI-8226 leukemia)
COc1ccc(-c2csc(NC(=O)N3CCN(c4cc5c(cc4F)c(=O)c(C(=O)O)cn5C4CC4)CC3)n2)cc1	3.03 µM	23.4 µM	2.25 µM	8.79 µM	2.86 µM	> 100 µM	2.31 µM	> 100 µM	1.72 µM	> 100 µM	1.8 µM	> 100 µM	–	–	–	–	–	–	–	–
C[Si](C)(C)/C=C\CCCN1C(=O)CCC1=O	–	–	–	> 100 µM	–	> 100 µM	–	> 100 µM	–	> 100 µM	–	> 100 µM	> 100 µM	> 100 µM	> 100 µM	> 100 µM	–	–	–	–
CC(C)Cc1ccc(C(C)/C=C2\CCC(CN3CCCC3)C2=O)cc1 (configuration not stated)	–	34.3 µM	–	30.8 µM	–	13.3 µM	–	29.6 µM	–	15.5 µM	–	15.4 µM	36.3 µM	28.4 µM	8.49 µM	5.53 µM	–	–	–	–
N/C(=N\c1nc2ccccc2s1)NC(=O)Nc1ccccc1Cl	0.0983 µM	1.56 µM	0.106 µM	1.74 µM	0.0643 µM	18.9 µM	0.0509 µM	2.14 µM	0.0852 µM	3.5 µM	0.0853 µM	0.834 µM	26.8 µM	> 100 µM	5.92 µM	9.28 µM	0.379 µM	3.59 µM	0.144 µM	0.144 µM
CN(C)CCCN=c1cc2c(=O)n(CCCN(C)C)c(=O)c3c(NCCCN(C)C)cc4c(O)n(CCCN(C)C)c(=O)c1c4c3-2	1.77 µM	4.44 µM	1.1 µM	9 µM	4.3 µM	46.4 µM	5.87 µM	19.7 µM	0.582 µM	5.52 µM	2.33 µM	11 µM	4.09 µM	4.79 µM	8.36 µM	46.1 µM	1.12 µM	1.96 µM	2.01 µM	4.18 µM
S=P(c1ccccc1)(c1ccccc1)C1(C2(P(=S)(c3ccccc3)c3ccccc3)CC2)CC1	–	> 100 µM	–	> 100 µM	–	> 100 µM	–	> 100 µM	–	> 100 µM	–	> 100 µM	> 100 µM	> 100 µM	> 100 µM	–	–	–	–	–
O=C(O)CCSC(=O)Nc1cccc([N+](=O)[O-])c1	–	> 100 µM	–	> 100 µM	–	> 100 µM	–	> 100 µM	–	> 100 µM	–	> 100 µM	–	> 100 µM	> 100 µM	> 100 µM	–	–	–	–
N#C/C(=C/C=C/c1ccccc1)S(=O)c1ccccc1 (configuration not stated)	0.385 µM	1.47 µM	1.44 µM	3.14 µM	0.211 µM	0.638 µM	0.655 µM	2.7 µM	–	–	0.267 µM	1.07 µM	1.07 µM	1.96 µM	0.337 µM	1.32 µM	0.3 µM	0.565 µM	0.163 µM	0.351 µM
O=C(COc1ccc(Cl)cc1)N1N=C(c2ccc([N+](=O)[O-])o2)CC1(O)c1ccccc1 (configuration not stated)	–	–	–	22.6 µM	–	18.5 µM	–	29.5 µM	–	17.9 µM	–	26.9 µM	29.7 µM	25.1 µM	23.8 µM	18.3 µM	–	–	–	–
Cc1[nH]c2ccccc2c1C1CC(=O)NC1=O (configuration not stated)	–	> 100 µM	–	> 100 µM	–	> 100 µM	–	> 100 µM	–	> 100 µM	–	> 100 µM	> 100 µM	> 100 µM	–	> 100 µM	–	–	–	–
C/C(=N\NS(=O)(=O)c1ccc(C)cc1)c1c(O)cc(C)oc1=O	–	–	–	> 100 µM	–	> 100 µM	–	> 100 µM	–	> 100 µM	–	> 100 µM	–	> 100 µM	> 100 µM	–	–	–	–	–
O=C(O)CN(c1ccccc1)S(=O)(=O)c1ccc(Cl)cc1	–	> 100 µM	–	–	–	> 100 µM	–	> 100 µM	–	–	–	> 100 µM	> 100 µM	> 100 µM	> 100 µM	> 100 µM	–	–	–	–
O=C1C(Cl)=C(Nc2cccc(O)c2)C(=O)N1c1cccc(Cl)c1	25.5 µM	> 100 µM	61.6 µM	> 100 µM	39.1 µM	> 100 µM	28.8 µM	> 100 µM	21.7 µM	> 100 µM	–	–	> 100 µM	> 100 µM	51.1 µM	34.3 µM	62.5 µM	85.7 µM	22.4 µM	12.8 µM
O=C1/C(=C/c2ccccc2Br)COc2ccc(O)c(O)c21	1.66 µM	3.22 µM	2.96 µM	8.04 µM	0.557 µM	3.12 µM	1.53 µM	4.06 µM	1.31 µM	2.78 µM	–	–	4.39 µM	4.42 µM	2.32 µM	0.682 µM	2.15 µM	1.94 µM	1.03 µM	0.261 µM
N#CC(C(=O)CCC(=O)Nc1ccc(Cl)cc1)c1ccccc1Cl (configuration not stated)	–	–	–	> 100 µM	–	> 100 µM	–	> 100 µM	–	> 100 µM	–	> 100 µM	> 100 µM	> 100 µM	–	> 100 µM	–	–	–	–
COc1cc2c(=O)n(CCCn3ccnc3)c3c4cc5c(cc4ccc3c2cc1OC)OCO5	0.316 µM	14.3 µM	0.331 µM	12.5 µM	1.17 µM	> 100 µM	0.698 µM	> 100 µM	–	–	0.489 µM	1.8 µM	–	> 100 µM	–	–	–	2 µM	–	–
COc1cc2ccnc3c2c(c1OC)CC1CC(O)C(OC)CC31 (configuration not stated)	–	–	–	> 100 µM	–	> 100 µM	–	> 100 µM	–	> 100 µM	–	55.4 µM	> 100 µM	75.2 µM	> 100 µM	> 100 µM	–	–	–	–
O=C1NC(=O)C(=O)C(c2nc3ccccc3s2)C1=O	–	> 100 µM	–	> 100 µM	–	> 100 µM	–	> 100 µM	–	> 100 µM	–	> 100 µM	–	> 100 µM	–	–	–	–	–	–
